# Experimental data from publication PMC6588243, “Fate of ptaquiloside—A bracken fern toxin—In cattle” (PLoS ONE, 2019).
# “Also recorded” adds a separate entry of the source. Like-named read-outs stand apart in the source and are kept apart here.
# Tests used:
# Assay type in all cases: in vivo, Jersey heifers
# [1] = Toxicokinetics of PTA and PTB in plasma after intravenous administration of PTA; details: for AUC0-∞: PTA in plasma; for k el / clearance / MRT / Vd: iv; for k el: read-out: λz terminal slope (converted)
# Procedure: (§1) Two heifers (no’s 4848 and 4849) were used in a series of five experiments (Table 1) in a cross-over design including intravenous administration of pure PTA, oral administration of bracken extract and oral administration of dried bracken fern. At least 2 weeks elapsed between each experiment.
# Intravenous administration of PTA. In Experiment 1 the dose of purified PTA (0.21 mg kg^-1 body weight (b.w.) / 0.527 μmoles kg^-1) was dissolved in 10 mL of sterile water in a brown glass vial 1 hour before administration and protected from light. The solution was injected through a catheter (Cavafix Certo: 45 cm, 16 G; B. Braun Melsungen AG, Melsungen, Germany) placed in the right jugular vein. Blood samples were collected through another catheter placed in the left jugular vein. Blood samples were collected in heparinized glass tubes before and at predetermined times (10, 20, 30, 45 min and 1, 2, 4, 6, 8, 12, 21 and 24 hours) after PTA administration. The blood was centrifuged for 15 min at 3000 g to separate plasma which then was stored immediately at -18°C until assayed within a week following the method of Aranha et al.. Urine was collected quantitatively in urinary bags (Ratiomed GmBH, München, Germany) through a Foley catheter (Rusch Silasil no 16; Teleflex, Milan, Italy) inserted into the bladder. Samples were collected before and at predetermined times (1, 2, 4, 6, 8, 12, 20 and 24 hours) after PTA administration. Two replicates from each sample were diluted 10 times (0.5 mL: 4.5 mL) with 0.1 M acetic acid, buffered to pH 5 with ammonium acetate and frozen immediately at -18°C until assayed within a week following the method of Aranha et al.. […] In this experiment, PTA was dissolved in sterile water immediately before injection.
# (§2) Concentrations of PTA in plasma of individual animals were evaluated by non-compartmental analysis. Toxicokinetic variables were calculated using standard kinetic equations. The area under the curve (AUC) and the area under the first moment curve (AUMC) were determined using combined linear and natural logarithm trapezoidal rules. The terminal elimination rate was determined using the last three data points of the curve.
# (§3) PTA and PTB were analysed by LC-MS after purification using solid phase extraction (SPE) columns as reported in Aranha et al.. The limit of quantification of PTA and PTB in plasma was 3.0 x 10^−3 μM and 9.30 x 10^−3 μM, respectively. Limit of quantifications in diluted urine was 13 x 10^−3 μM for PTA and 8.28 x 10^−3μM for PTB.
# [2] = Urinary recovery of PTA and PTB after intravenous administration of PTA; details: twelve hours after iv administration of PTA
# Procedure: Intravenous administration of PTA. In Experiment 1 the dose of purified PTA (0.21 mg kg^-1 body weight (b.w.) / 0.527 μmoles kg^-1) was dissolved in 10 mL of sterile water in a brown glass vial 1 hour before administration and protected from light. The solution was injected through a catheter (Cavafix Certo: 45 cm, 16 G; B. Braun Melsungen AG, Melsungen, Germany) placed in the right jugular vein. Blood samples were collected through another catheter placed in the left jugular vein. Blood samples were collected in heparinized glass tubes before and at predetermined times (10, 20, 30, 45 min and 1, 2, 4, 6, 8, 12, 21 and 24 hours) after PTA administration. The blood was centrifuged for 15 min at 3000 g to separate plasma which then was stored immediately at -18°C until assayed within a week following the method of Aranha et al.. Urine was collected quantitatively in urinary bags (Ratiomed GmBH, München, Germany) through a Foley catheter (Rusch Silasil no 16; Teleflex, Milan, Italy) inserted into the bladder. […]
# as §3
# [3] = Toxicokinetics in plasma after oral administration of bracken extract or dried bracken fern; details: bracken extract or dried bracken fern, Experiments 2, 3 and 5
# Procedure: as §1
# Oral exposure, bracken extract. Bracken extract was administered orally by gavage in Experiment 2 (170 and 172 mL) and Experiment 5 (820 and 850 mL), to obtain PTA doses of 0.41 and 2 mg kg^-1 b.w (1.025 and 5.000 μmoles kg^-1), respectively. Blood and urine samples were collected up to 48 hours after gavage and samples were processed and stored as described previously.
# Oral exposure, dried bracken fern. In Experiment 3, dried bracken fern was milled to a fine powder. Immediately before administration, the powder was mixed with water to produce a slurry (15 g of bracken per 100 mL of water). The slurry was administered orally by gavage (400 mL and 380 mL) corresponding to a PTA dose of 1.6 mg kg^-1 b.w (4 μmoles kg^-1). Blood and urine samples were collected up to 72 hours after gavage and the samples were processed and stored as described above.
# as §2, §3
smiles,measurement,setting,value
"CC1=C[C@]2(O[C@@H]3O[C@H](CO)[C@@H](O)[C@H](O)[C@H]3O)C[C@@H](C)C(=O)[C@@H]2[C@](C)(O)C12CC2 [PTA, (2'R,3a'R,4'S,7a'R)-4'-Hydroxy-2',4',6'-trimethyl-3'-oxo-2',3',3a',4'-tetrahydrospiro[cyclopropane-1,5'-inden]-7a'(1'H)-yl β-D-glucopyranoside]",AUC0-∞,"[1]; iv PTA 0.141 μmoles kg^-1, heifer no 4849, head prints Experiment 2",0.42 µM·h
same,AUC0-∞,"[1]; iv PTA 0.231 μmoles kg^-1, heifer no 4848, head prints Experiment 2",0.829 µM·h
same,AUC0-∞,"[1]; iv PTA 0.527 μmoles kg^-1, heifer no 4848, Experiment 1",1.39 µM·h
same,AUC0-∞,"[1]; iv PTA 0.527 μmoles kg^-1, heifer no 4849, Experiment 1",1.35 µM·h
same,k el,"[1]; female, Jersey, bovine, plasma, 0.141 μmoles kg^-1, iv PTA 0.141 μmoles kg^-1, heifer no 4849, head prints Experiment 2, plasma",6.72e-05 s⁻¹
same,clearance,"[1]; female, Jersey, bovine, plasma, 0.141 μmoles kg^-1, iv PTA 0.141 μmoles kg^-1, heifer no 4849, head prints Experiment 2, read-out: Cl (body) body clearance (converted)",5.57 mL/min/kg
same,MRT,"[1]; female, Jersey, bovine, plasma, 0.141 μmoles kg^-1, iv PTA 0.141 μmoles kg^-1, heifer no 4849, head prints Experiment 2, read-out: MRT mean residence time",2.48 h
same,Vd,"[1]; female, Jersey, bovine, plasma, 0.141 μmoles kg^-1, iv PTA 0.141 μmoles kg^-1, heifer no 4849, head prints Experiment 2, read-out: Vss apparent volume of distribution at steady-state",0.83 L/kg
same,k el,"[1]; female, Jersey, bovine, plasma, 0.231 μmoles kg^-1, iv PTA 0.231 μmoles kg^-1, heifer no 4848, head prints Experiment 2, plasma",0.000105 s⁻¹
same,clearance,"[1]; female, Jersey, bovine, plasma, 0.231 μmoles kg^-1, iv PTA 0.231 μmoles kg^-1, heifer no 4848, head prints Experiment 2, read-out: Cl (body) body clearance (converted)",4.72 mL/min/kg
same,MRT,"[1]; female, Jersey, bovine, plasma, 0.231 μmoles kg^-1, iv PTA 0.231 μmoles kg^-1, heifer no 4848, head prints Experiment 2, read-out: MRT mean residence time",2.04 h
same,Vd,"[1]; female, Jersey, bovine, plasma, 0.231 μmoles kg^-1, iv PTA 0.231 μmoles kg^-1, heifer no 4848, head prints Experiment 2, read-out: Vss apparent volume of distribution at steady-state",0.567 L/kg
same,k el,"[1]; female, Jersey, bovine, plasma, 0.527 μmoles kg^-1, iv PTA 0.527 μmoles kg^-1, heifer no 4848, Experiment 1, plasma",4.25e-05 s⁻¹
same,clearance,"[1]; female, Jersey, bovine, plasma, 0.527 μmoles kg^-1, iv PTA 0.527 μmoles kg^-1, heifer no 4848, Experiment 1, read-out: Cl (body) body clearance (converted)",6.33 mL/min/kg
same,MRT,"[1]; female, Jersey, bovine, plasma, 0.527 μmoles kg^-1, iv PTA 0.527 μmoles kg^-1, heifer no 4848, Experiment 1, read-out: MRT mean residence time",2.99 h
same,Vd,"[1]; female, Jersey, bovine, plasma, 0.527 μmoles kg^-1, iv PTA 0.527 μmoles kg^-1, heifer no 4848, Experiment 1, read-out: Vss apparent volume of distribution at steady-state",1.14 L/kg
same,k el,"[1]; female, Jersey, bovine, plasma, 0.527 μmoles kg^-1, iv PTA 0.527 μmoles kg^-1, heifer no 4849, Experiment 1, plasma",3.19e-05 s⁻¹
same,clearance,"[1]; female, Jersey, bovine, plasma, 0.527 μmoles kg^-1, iv PTA 0.527 μmoles kg^-1, heifer no 4849, Experiment 1, read-out: Cl (body) body clearance (converted)",6.48 mL/min/kg
same,MRT,"[1]; female, Jersey, bovine, plasma, 0.527 μmoles kg^-1, iv PTA 0.527 μmoles kg^-1, heifer no 4849, Experiment 1, read-out: MRT mean residence time",3.84 h
same,Vd,"[1]; female, Jersey, bovine, plasma, 0.527 μmoles kg^-1, iv PTA 0.527 μmoles kg^-1, heifer no 4849, Experiment 1, read-out: Vss apparent volume of distribution at steady-state",1.49 L/kg
same,Vd,"[1]; female, Jersey, bovine, plasma, 0.21 mg/kg, iv PTA 0.21 mg kg^-1 b.w., average of two heifers, read-out: apparent volume of distribution at steady state (Vss)",~1.3 L/kg
same,MRT,"[1]; female, Jersey, bovine, plasma, iv PTA, abstract and discussion, read-out: mean residence time (MRT), as summarised",≤ 4 h
same,half-life,"[1]; female, Jersey, bovine, plasma, iv purified PTA, read-out: terminal half-life",≤ 6 h
same,Vd,"[1]; female, Jersey, cattle, plasma, 0.21 mg/kg, iv PTA 0.21 mg kg^-1 b.w., average of two heifers, read-out: apparent volume of distribution at steady state (Vss)",1.3 L/kg
same,clearance,"[1]; female, Jersey, cattle, plasma, 0.21 mg/kg, iv PTA 0.21 mg kg^-1 b.w., average of two heifers, read-out: average clearance (converted)",6.5 mL/min/kg
same,MRT,"[1]; female, Jersey, cattle, plasma, 0.21 mg/kg, iv PTA 0.21 mg kg^-1 b.w., average of two heifers, read-out: average of the mean residence time (MRT)",3.4 h
same,MRT,"[1]; female, Jersey, cattle, plasma, iv PTA, abstract and discussion, read-out: mean residence time (MRT), as summarised",4 h
same,time after which the plasma concentration was below the limit of quantification,[1]; iv PTA 0.21 mg kg^-1 b.w.,12 h
same,dose recovered in urine as PTA,[2],30%
same,PTA in plasma after oral administration,[3],not detected; also recorded: neither detected
same,PTA in plasma after oral administration,[3]; listed as ptaquiloside,did not result in observations of ptaquiloside in body fluids
